Measurements taken from patent publication US7985740B2, “Purine derivatives as agonists of the adenosine A2A receptor” (Glaxo Group Limited, priority 2005, dated 2011).

How the values were obtained:
[1] = biological target: T1, Human Serum Albumin (HSA) (Homo sapiens, UniProt P02768); test: Human serum albumin (HSA) binding, immobilised HSA HPLC column; assay type: in vitro ADME; settings: for % HSA measured / logK measured: HSA column; for logK measured: derived from the calibration curve; for logtR: logarithm of typical retention time on the HSA column; for tR: typical retention time on the HSA column
T1 construct: purchased Chromtech (Cheshire, UK)
T1 sequence (P02768 25-609): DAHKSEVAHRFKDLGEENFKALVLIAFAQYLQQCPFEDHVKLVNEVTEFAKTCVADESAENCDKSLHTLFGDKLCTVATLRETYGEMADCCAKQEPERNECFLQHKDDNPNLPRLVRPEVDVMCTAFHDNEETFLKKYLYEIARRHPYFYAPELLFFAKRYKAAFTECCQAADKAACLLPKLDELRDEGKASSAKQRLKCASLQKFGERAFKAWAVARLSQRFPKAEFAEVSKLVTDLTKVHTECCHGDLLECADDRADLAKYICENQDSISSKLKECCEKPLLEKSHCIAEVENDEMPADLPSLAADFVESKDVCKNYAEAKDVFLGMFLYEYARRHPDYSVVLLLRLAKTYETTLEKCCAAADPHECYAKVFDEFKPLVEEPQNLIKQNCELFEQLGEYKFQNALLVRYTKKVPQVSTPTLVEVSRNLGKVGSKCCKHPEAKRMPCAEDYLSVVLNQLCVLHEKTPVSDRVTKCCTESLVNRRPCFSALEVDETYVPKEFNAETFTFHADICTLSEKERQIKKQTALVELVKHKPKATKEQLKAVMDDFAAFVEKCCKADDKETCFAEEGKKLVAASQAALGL
Description: Instrument: Agilent HP1100 HPLC instruments were used throughout.
HPLC columns: Chromtech Immobilised HSA HPLC column 50×3 mm was purchased from Chromtech (Cheshire, UK).
Mobile phase and detection: The mobile phase A was 50 mM pH 7.4 ammonium acetate solution, while mobile phase B was 2-Propanol (HPLC grade, Runcorn, UK). The mobile phase flow rate was 1.8 ml/min. The column temperature was kept at 30° C. The gradient profile and run time were the same with each column, the linear gradient from 0 to 30% 2-propanol was applied from 0 to 3 minutes. From 3 to 5 minutes, the mobile phase composition was constant 30% 2-propanol and 70% 50-mM ammonium acetate. From 5 min to 5.2 min the mobile phase composition was change to 100% ammonium acetate buffer only and remained the same until the end of the run. Each separation was stopped after 6 minutes. The column temperature was kept at 30° C.
Detection: Chromatograms were recorded at 230 and 254 nm by a diode array UV absorption detector at room temperature.

[2] = linear conversion of literature % PPB; cited from earlier work
[3] = system: neutrophilia; test: Inhibition of LPS-induced lung neutrophilia in rats, intratracheal dosing; assay type: in vivo; settings: rat, retested at 30 ug/kg, similar method
Description: Rats are lightly anaesthetized (isofluorane in oxygen) and vehicle or test substance administered intratracheally using a cannula placed trans-orally (200 μl). Following intratracheal administration, rats are returned to their cages and allowed free access to both food and water. Thirty min later, rats are placed in a perspex box and exposed to aerosolized lipopolysaccharide (LPS) (0.15 mg/ml, serotype 0127:B8) for 15 min (Devilbiss nebuliser) at a flow rate of 15 ml/min. Animals are killed 4 h later with pentobarbital (250 mg/kg i.p.). The lungs are lavaged using 3 aliquots (5 ml) of phosphate-buffered saline (Sigma catalogue no. P3813, pH 7.4) containing heparin (10 units/ml); recovered cells are pooled (pooled volume of recovered fluid will be recorded) and centrifuged (1300 rpm for 7 min). The supernatant is removed by aspiration and the cell pellet resuspended in 1 ml phosphate-buffered saline. Total cells are counted (Sysmex Microcell Counter F-500, TOA Medical Electronics Ltd., Japan). Smears are made by diluting recovered fluid (to approximately 10^6 cells/ml) and spinning an aliquot (100 μl) in a centrifuge (Cytospin, Shandon, UK). […] A total of 300 cells per smear are counted by light microscopy under oil immersion (×1000).

[4] = biological target: T2, human adenosine A3 receptor (Homo sapiens, UniProt P0DMS8); test: Agonist activity at human adenosine A3 receptor, CHO cells with cAMP response element SPAP reporter; assay type: cell-based; settings: forskolin enhanced cAMP
T2 construct: expressed in transfected cells
T2 sequence (P0DMS8 1-318): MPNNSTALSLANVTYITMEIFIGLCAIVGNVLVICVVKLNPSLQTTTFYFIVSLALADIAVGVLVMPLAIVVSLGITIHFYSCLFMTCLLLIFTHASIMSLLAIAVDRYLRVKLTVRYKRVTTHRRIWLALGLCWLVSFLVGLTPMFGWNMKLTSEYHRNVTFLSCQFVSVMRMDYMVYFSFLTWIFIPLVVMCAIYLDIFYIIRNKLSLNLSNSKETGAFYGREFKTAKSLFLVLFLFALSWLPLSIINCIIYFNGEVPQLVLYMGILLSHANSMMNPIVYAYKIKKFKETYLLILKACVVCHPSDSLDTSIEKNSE
Description: The adenosine A3 agonist potency of compounds are determined using Chinese Hamster ovary cells stably expressing the human adenosine A3 receptor and the cAMP response element SPAP (secreted placental alkaline phosphatase). Increasing the level of cAMP in theses cell causes an increase in the transcription of the SPAP reporter gene, which can be quantified by addition of a colour substrate to measure a coloured product. The adenosine A3 receptor is Gi linked so levels cAMP have to be enhanced by forskolin in these cells. Activation of the adenosine A3 receptor is determined by the reduction of forskolin enhanced cAMP, which is measured as a decrease in the coloured product. The Adenosine A3 activity of the test compounds is expressed as a ratio to that of the non-selective adenosine receptor agonist, N-ethyl carboxamide adenosine (NECA).

Structure (SMILES)	% HSA measured ([1]; pH 7.4)	logK measured [1]	logtR [1]	tR [1]	lit logK [2]	inhibition of neutrophilia [3]	HSA binding ([1]; pH 7.4)	Adenosine A3 agonist activity [4]
O=C1CN=C(c2ccccn2)c2cc(Br)ccc2N1 [Bromazepam]	74.7%	0.45	0.06	1.16	0.17			
CCCC1O[C@@H]2C[C@H]3[C@@H]4CCC5=CC(=O)C=C[C@]5(C)[C@H]4[C@@H](O)C[C@]3(C)[C@]2(C(=O)CO)O1 (stereo partly drawn) [Budesonide]	85.6%	0.75	0.20	1.6	0.83			
NC(=O)N1c2ccccc2C=Cc2ccccc21 [Carbamazepine]	80.5%	0.59	0.13	1.35	0.46			
O=C(O)Cc1ccccc1Nc1c(Cl)cccc1Cl [Diclofenac]					1.92			
CCn1nnc([C@H]2O[C@@H](n3cnc4c(N[C@H]5CC[C@H](Nc6nc(NCCCCN7CCCC7)nc7[nH]cnc67)CC5)nc(NCCCCN5CCCC5)nc43)[C@H](O)[C@@H]2O)n1 [Example 4, (2R,3S,4R,5R)-2-(2-ethyl-2H-tetrazol-5-yl)-5-[2-{[4-(1-pyrrolidinyl)butyl]amino}-6-({trans-4-[(2-{[4-(1-pyrrolidinyl)butyl]amino}-1H-purin-6-yl)amino]cyclohexyl}amino)-9H-purin-9-yl]tetrahydro-3,4-furandiol, triformate]						> 50%		
CCn1nnc(C2OC(n3cnc4c(NC5CCC(Nc6ccnc(NCCc7nc[nH]c7C)n6)CC5)nc(NCCc5nc[nH]c5C)nc43)C(O)C2O)n1.O=CO.O=CO [Example 8, (2R,3S,4R,5R)-2-(2-ethyl-2H-tetrazol-5-yl)-5-[2-{[2-(5-methyl-1H-imidazol-4-yl)ethyl]amino}-6-({trans-4-[(2-{[2-(5-methyl-1H-imidazol-4-yl)ethyl]amino}-4-pyrimidinyl)amino]cyclohexyl}-amino)-9H-purin-9-yl]tetrahydro-3,4-furandiol, diformate]							greater than 90%	functionally inactive over the concentration range of the assay
CCn1nnc([C@H]2O[C@@H](n3cnc4c(N[C@H]5CC[C@H](Nc6ccnc(N[C@H]7CC[C@H](N)CC7)n6)CC5)nc(N[C@H]5CC[C@H](N)CC5)nc43)[C@@H](O)[C@H]2O)n1.O=CO.O=CO.O=CO [Example 10, (2R,3S,4R,5R)-2-(2-[(trans-4-aminocyclohexyl)amino]-6-{[trans-4-({2-[(trans-4-aminocyclohexyl)amino]-4-pyrimidinyl}amino)cyclohexyl]-amino}-9H-purin-9-yl)-5-(2-ethyl-2H-tetrazol-5-yl)tetrahydro-3,4-furandiol, triformate]								functionally inactive over the concentration range of the assay
COC(=O)C1=C(C)NC(C)=C(C(=O)OCCN(C)Cc2ccccc2)C1c1cccc([N+](=O)[O-])c1 (stereo not drawn) [Nicardipine]	95.0%	1.22	0.43	2.7				
CNC(=C[N+](=O)[O-])NCCSCc1csc(CN(C)C)n1 [Nizatidine]	24.6%	−0.49		0.40	−0.28			
CN1C(C(=O)Nc2ccccn2)=C(O)c2ccccc2S1(=O)=O [Piroxicam]	96.6%	1.34	0.49	3.1	1.16			
